This note sets out measurements from PubChem BioAssay AID256 (DTP/NCI, 2004).

“And” between values parts separate entries of the source, which are not always exact repeats. Equal entries are not always repeated. Toxic doses and inconclusive results are not listed.

The assay deals with CD2F1 mice, L1210 leukemia ip, survival T/C. Put plainly: NCI In Vivo Anticancer Drug Screen. Data for tumor model L1210 Leukemia (intraperitoneal) in CD2F1 (CDF1) mice. Conditions: higher = longer survival. Put shortly:
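Ratio T/C, where T is the treated-group value and C the vehicle-dosed control value, from mice implanted with a transplantable tumor.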

[1] abbreviates: endpoint: mean survival time, dose: 100.0 mg/kg/injection, schedule: Q01DX009 (ip), vehicle: saline with Tween-80.
[2] abbreviates: endpoint: mean survival time, dose: 100.0 mg/kg/injection, schedule: Q04DX003 (ip), vehicle: saline with Tween-80.
Where [3] appears, read: endpoint: mean survival time, dose: 200.0 mg/kg/injection, schedule: Q01DX009 (ip), vehicle: saline with Tween-80.
Where [4] appears, read: endpoint: mean survival time, dose: 200.0 mg/kg/injection, schedule: Q04DX003 (ip), vehicle: saline with Tween-80.
Setting [5] is: endpoint: mean survival time, dose: 400.0 mg/kg/injection, schedule: Q04DX003 (ip), vehicle: saline with Tween-80.

Take `COc1cc(CNC(=O)CCCC2CCC2)ccc1O`: the T/C runs as follows: (endpoint: mean survival time, dose: 3.13 mg/kg/injection, schedule: Q01DX009 (ip), vehicle: saline with Tween-80) 96 % of control; (endpoint: mean survival time, dose: 6.25 mg/kg/injection, schedule: Q01DX009 (ip), vehicle: saline with Tween-80) 94 % of control and 97 % of control; (endpoint: mean survival time, dose: 6.25 mg/kg/injection, schedule: Q04DX003 (ip), vehicle: saline with Tween-80) 96 % of control; (endpoint: mean survival time, dose: 12.5 mg/kg/injection, schedule: Q01DX009 (ip), vehicle: saline with Tween-80) 86 % of control and 97 % of control; (endpoint: mean survival time, dose: 12.5 mg/kg/injection, schedule: Q04DX003 (ip), vehicle: saline with Tween-80) 101 % of control; (endpoint: mean survival time, dose: 25.0 mg/kg/injection, schedule: Q01DX009 (ip), vehicle: saline with Tween-80) 100 % of control. In addition, the T/C (endpoint: mean survival time, dose: 25.0 mg/kg/injection, schedule: Q04DX003 (ip), vehicle: saline with Tween-80) was 95 % of control.

On to `CN(CCl)S(=O)(=O)c1ccccc1`, for which the T/C by setting is: under setting [1], 100 % of control; under setting [2], 112 % of control; under setting [3], 104 % of control; under setting [4], 101 % of control; (endpoint: mean survival time, dose: 400.0 mg/kg/injection, schedule: Q01DX009 (ip), vehicle: saline with Tween-80) 102 % of control; under setting [5], 100 % of control.

Consider `COC(=O)c1ccc[n+](CC(=O)c2ccccc2)c1`, for which the T/C by setting is: (endpoint: mean survival time, dose: 50.0 mg/kg/injection, schedule: Q01DX009 (ip), vehicle: saline with Tween-80) 101 % of control; under setting [1], 96 % of control; under setting [3], 98 % of control.

As to `O=C1C2C(c3ccccc3)=C(c3ccccc3)C1C1(c3ccccc3)C(c3ccccc3)=CC(=O)C21` (centres undefined), the T/C was 89 % of control (endpoint: mean survival time, dose: 100.0 mg/kg/injection, schedule: Q01DX001 (ip), vehicle: Klucel (hydroxypropylcellulose) (HPC)); 93 % of control (endpoint: mean survival time, dose: 200.0 mg/kg/injection, schedule: Q01DX001 (ip), vehicle: Klucel (hydroxypropylcellulose) (HPC)); 93 % of control (endpoint: mean survival time, dose: 400.0 mg/kg/injection, schedule: Q01DX001 (ip), vehicle: Klucel (hydroxypropylcellulose) (HPC)).

Take `CCCCOC(=O)c1cc([N+](=O)[O-])cc([N+](=O)[O-])c1Sc1ncnc2nc[nH]c12`: the T/C is 108 % of control (endpoint: mean survival time, dose: 0.63 mg/kg/injection, schedule: Q01DX005 (ip), vehicle: other); 95 % of control (endpoint: mean survival time, dose: 1.25 mg/kg/injection, schedule: Q01DX005 (ip), vehicle: other); 110 % of control (endpoint: mean survival time, dose: 2.5 mg/kg/injection, schedule: Q01DX005 (ip), vehicle: other); 113 % of control (endpoint: mean survival time, dose: 5.0 mg/kg/injection, schedule: Q01DX005 (ip), vehicle: other); 98 % of control (endpoint: mean survival time, dose: 9.4 mg/kg/injection, schedule: Q01DX005 (ip), vehicle: other); 115 % of control (endpoint: mean survival time, dose: 10.0 mg/kg/injection, schedule: Q01DX005 (ip), vehicle: other). For the same compound, the T/C was 103 % of control (endpoint: mean survival time, dose: 18.8 mg/kg/injection, schedule: Q01DX005 (ip), vehicle: other); 109 % of control (endpoint: mean survival time, dose: 37.5 mg/kg/injection, schedule: Q01DX005 (ip), vehicle: other); 113 % of control (endpoint: mean survival time, dose: 75.0 mg/kg/injection, schedule: Q01DX005 (ip), vehicle: other).

Regarding `NC(CSC(c1ccccc1)(c1ccccc1)c1cccc2ccccc12)C(=O)O` (centres undefined), the T/C runs as follows: (endpoint: mean survival time, dose: 25.0 mg/kg/injection, schedule: Q01DX009 (ip), vehicle: saline) 100 % of control; (endpoint: mean survival time, dose: 50.0 mg/kg/injection, schedule: Q01DX009 (ip), vehicle: saline) 100 % of control; (endpoint: mean survival time, dose: 100.0 mg/kg/injection, schedule: Q01DX009 (ip), vehicle: saline) 110 % of control; (endpoint: mean survival time, dose: 200.0 mg/kg/injection, schedule: Q01DX009 (ip), vehicle: saline) 102 % of control.

In the case of `CN(C)C1CC2C=CC1C1C=CC21` (centres undefined), the T/C was 100 % of control (endpoint: mean survival time, dose: 6.25 mg/kg/injection, schedule: Q01DX009 (ip), vehicle: water); 97 % of control (endpoint: mean survival time, dose: 12.5 mg/kg/injection, schedule: Q01DX009 (ip), vehicle: water); 101 % of control (endpoint: mean survival time, dose: 25.0 mg/kg/injection, schedule: Q01DX009 (ip), vehicle: water); 103 % of control (endpoint: mean survival time, dose: 50.0 mg/kg/injection, schedule: Q01DX009 (ip), vehicle: water).

`OC1OCC(Cc2ccc3c(c2)OCO3)C1Cc1ccc2c(c1)OCO2` (centres undefined): the T/C by setting is: (endpoint: mean survival time, dose: 100.0 mg/kg/injection, schedule: Q04DX003 (ip), vehicle: saline) 89 % of control; (endpoint: mean survival time, dose: 200.0 mg/kg/injection, schedule: Q04DX003 (ip), vehicle: saline) 93 % of control; (endpoint: mean survival time, dose: 400.0 mg/kg/injection, schedule: Q04DX003 (ip), vehicle: saline) 89 % of control.

For `CCOc1ccccc1NC(=O)NC1C(OC(C)=O)OC(COC(C)=O)C(OC(C)=O)C1OC(C)=O` (centres undefined), the T/C (endpoint: mean survival time, dose: 12.5 mg/kg/injection, schedule: Q01DX009 (ip), vehicle: other) was 94 % of control; the T/C (endpoint: mean survival time, dose: 25.0 mg/kg/injection, schedule: Q01DX009 (ip), vehicle: other) is 100 % of control; the T/C (endpoint: mean survival time, dose: 50.0 mg/kg/injection, schedule: Q01DX009 (ip), vehicle: other) is 94 % of control; the T/C (endpoint: mean survival time, dose: 100.0 mg/kg/injection, schedule: Q01DX009 (ip), vehicle: other) was 96 % of control; the T/C (endpoint: mean survival time, dose: 200.0 mg/kg/injection, schedule: Q01DX009 (ip), vehicle: other) is 90 % of control.

Consider `O=c1[nH]c(=O)n(C2OC(CO)C(O)C2O)o1` (centres undefined), for which the T/C (endpoint: mean survival time, dose: 12.5 mg/kg/injection, schedule: Q01DX005 (ip), vehicle: water) is 93 % of control; the T/C (endpoint: mean survival time, dose: 25.0 mg/kg/injection, schedule: Q01DX005 (ip), vehicle: water) is 101 % of control; the T/C (endpoint: mean survival time, dose: 50.0 mg/kg/injection, schedule: Q01DX005 (ip), vehicle: water) is 90 % of control; the T/C (endpoint: mean survival time, dose: 100.0 mg/kg/injection, schedule: Q01DX005 (ip), vehicle: water) was 98 % of control; the T/C (endpoint: mean survival time, dose: 200.0 mg/kg/injection, schedule: Q01DX005 (ip), vehicle: water) was 96 % of control.

For `CCN(CC)CC(=O)O[C@]1(CC)C(=O)OCc2c1cc1n(c2=O)Cc2cc3ccccc3nc2-1`, the T/C (endpoint: median survival time, dose: 1.0 mg/kg/injection, schedule: Q01DX009 (ip), vehicle: water) was 124 % of control and 109 % of control; the T/C (endpoint: median survival time, dose: 3.75 mg/kg/injection, schedule: Q04DX002 (ip), vehicle: water) was 114 % of control and 109 % of control; the T/C (endpoint: median survival time, dose: 3.75 mg/kg/injection, schedule: Q04HX004 (iv), vehicle: other) was 150 % of control; the T/C (endpoint: median survival time, dose: 4.0 mg/kg/injection, schedule: Q01DX009 (ip), vehicle: water) is 154 % of control and 163 % of control; the T/C (endpoint: median survival time, dose: 7.5 mg/kg/injection, schedule: Q04DX002 (ip), vehicle: water) is 124 % of control; the T/C (endpoint: median survival time, dose: 7.5 mg/kg/injection, schedule: Q04HX004 (iv), vehicle: dextrose) is 183 % of control. Further, the T/C by setting is: (endpoint: median survival time, dose: 7.5 mg/kg/injection, schedule: Q04HX004 (iv), vehicle: other) 175 % of control; (endpoint: median survival time, dose: 8.0 mg/kg/injection, schedule: Q01DX009 (ip), vehicle: water) 113 % of control; (endpoint: median survival time, dose: 15.0 mg/kg/injection, schedule: Q04DX002 (ip), vehicle: water) 157 % of control; (endpoint: median survival time, dose: 15.0 mg/kg/injection, schedule: Q04HX004 (iv), vehicle: dextrose) 218 % of control; (endpoint: median survival time, dose: 15.0 mg/kg/injection, schedule: Q04HX004 (iv), vehicle: other) 203 % of control; (endpoint: median survival time, dose: 30.0 mg/kg/injection, schedule: Q04DX002 (ip), vehicle: water) 223 % of control and 256 % of control. The T/C was 204 % of control (endpoint: median survival time, dose: 30.0 mg/kg/injection, schedule: Q04HX004 (iv), vehicle: dextrose) and 268 % of control (endpoint: median survival time, dose: 30.0 mg/kg/injection, schedule: Q04HX004 (iv), vehicle: other).

As for `COc1cc(N)nc(OC)n1`, the T/C was 94 % of control under setting [2], 100 % of control under setting [4] and 87 % of control under setting [5].

`N#C/C(=C\c1cccc(OCc2ccccc2)c1)c1ccc([N+](=O)[O-])cc1`: the T/C reads like this: (endpoint: mean survival time, dose: 6.25 mg/kg/injection, schedule: Q04DX003 (ip), vehicle: saline) 98 % of control; (endpoint: mean survival time, dose: 12.5 mg/kg/injection, schedule: Q04DX003 (ip), vehicle: saline) 98 % of control; (endpoint: mean survival time, dose: 25.0 mg/kg/injection, schedule: Q04DX003 (ip), vehicle: saline) 102 % of control.

As for `NC1=NCN(c2ccc(OCCOc3ccc(NC(=O)CBr)cc3)cc2)C(N)=N1`, the T/C by setting is: (endpoint: mean survival time, dose: 37.5 mg/kg/injection, schedule: Q04DX002 (ip), vehicle: saline with Tween-80) 96 % of control; (endpoint: mean survival time, dose: 75.0 mg/kg/injection, schedule: Q04DX002 (ip), vehicle: saline with Tween-80) 96 % of control; (endpoint: mean survival time, dose: 150.0 mg/kg/injection, schedule: Q04DX002 (ip), vehicle: saline with Tween-80) 90 % of control.

In the case of `Cc1ccc(/C=N\N=C\c2ccc(C)cc2)cc1`, the T/C reads like this: under setting [2], 90 % of control; under setting [5], 95 % of control.
